Laboratory results as given in ChEMBL document CHEMBL6121002, “Discovery of novel bicyclic and tricyclic cyclohepta[b]thiophene derivatives as multipotent AChE and BChE inhibitors, in-Vivo and in-Vitro assays, ADMET and molecular docking simulation” (Eur J Med Chem, 2025).
Active and inactive are the calls of the source. No cut-off for these calls is given here.

Assays:
Rattus norvegicus [1] = experiment: Antialzheimer activity in AlCl3-induced learning and memory impairment in Sprague-Dawley rat assessed as time taken for memory at 30 mg/kg, po measured after 5 weeks by MWM test (reference value: 6.833 +/- 0.79 sec); type: functional
Rattus norvegicus [2] = experiment: Antialzheimer activity in AlCl3-induced learning and memory impairment in Sprague-Dawley rat assessed as fold decrease in AChE level in brain tissue at 30 mg/kg, po measured after 5 weeks by fluorometric analysis relative to control; type: functional
Cholinesterase = Cholinesterase (Homo sapiens, UniProt P06276); experiment: Inhibition of BChE (unknown origin) using butyrylthiocholine iodide as substrate incubated for 20 mins by fluorescence based assay
Rattus norvegicus [3] = experiment: Antialzheimer activity in AlCl3-induced learning and memory impairment in Sprague-Dawley rat assessed as reduction in TNF-alpha level in brain tissue at 30 mg/kg, po measured after 5 weeks by ELISA relative to control; type: functional; design: scale not given: the % may be the effect or the level left
Rattus norvegicus [4] = experiment: Antialzheimer activity in AlCl3-induced learning and memory impairment in Sprague-Dawley rat assessed as time taken for learning at 30 mg/kg, po measured after 5 weeks by MWM test (reference value: 53.67 +/- 1.05 sec); type: functional
Rattus norvegicus [5] = experiment: Antialzheimer activity in AlCl3-induced learning and memory impairment in Sprague-Dawley rat assessed as spontaneous alternation at 30 mg/kg, po measured after 5 weeks by Y-maze test (reference value: 50 +/- 2.89 %); type: functional
Rattus norvegicus [6] = experiment: Antialzheimer activity in AlCl3-induced learning and memory impairment in Sprague-Dawley rat assessed as fold increase in norepinephrine level in brain tissue at 30 mg/kg, po measured after 5 weeks by fluorometric analysis relative to control; type: functional
Acetylcholinesterase = Acetylcholinesterase (Homo sapiens, UniProt P22303); experiment: Inhibition of AChE (unknown origin) incubated for 40 mins in presence of substrate
Rattus norvegicus [7] = experiment: Antialzheimer activity in AlCl3-induced learning and memory impairment in Sprague-Dawley rat assessed as fold increase in time spent in target quadrant at 30 mg/kg, po measured after 5 weeks by […] relative to control; type: functional
Rattus norvegicus [8] = experiment: Antialzheimer activity in AlCl3-induced learning and memory impairment in Sprague-Dawley rat assessed as fold increase in dopamine level in brain tissue at 30 mg/kg, po measured after 5 weeks by fluorometric analysis relative to control; type: functional
Rattus norvegicus [9] = experiment: Antialzheimer activity in AlCl3-induced learning and memory impairment in Sprague-Dawley rat assessed as reduction in escape latency time at 30 mg/kg, po measured after 5 weeks by MWM test relative to control; type: functional; design: scale not given: the % may be the effect or the level left
Rattus norvegicus [10] = experiment: Antialzheimer activity in AlCl3-induced learning and memory impairment in Sprague-Dawley rat assessed as increase in time spent in target quadrant at 30 mg/kg, po measured after 5 weeks by […]; type: functional, organism-based
[11] = Selectivity index, ratio of IC50 for BChE (unknown origin) using butyrylthiocholine iodide as substrate to IC50 for AChE (unknown origin)
Rattus norvegicus [12] = experiment: Antialzheimer activity in AlCl3-induced learning and memory impairment in Sprague-Dawley rat assessed as fold increase in 5-HT level in brain tissue at 30 mg/kg, po measured after 5 weeks by fluorometric analysis relative to control; type: functional

Chain of Cholinesterase (P06276 whole entry): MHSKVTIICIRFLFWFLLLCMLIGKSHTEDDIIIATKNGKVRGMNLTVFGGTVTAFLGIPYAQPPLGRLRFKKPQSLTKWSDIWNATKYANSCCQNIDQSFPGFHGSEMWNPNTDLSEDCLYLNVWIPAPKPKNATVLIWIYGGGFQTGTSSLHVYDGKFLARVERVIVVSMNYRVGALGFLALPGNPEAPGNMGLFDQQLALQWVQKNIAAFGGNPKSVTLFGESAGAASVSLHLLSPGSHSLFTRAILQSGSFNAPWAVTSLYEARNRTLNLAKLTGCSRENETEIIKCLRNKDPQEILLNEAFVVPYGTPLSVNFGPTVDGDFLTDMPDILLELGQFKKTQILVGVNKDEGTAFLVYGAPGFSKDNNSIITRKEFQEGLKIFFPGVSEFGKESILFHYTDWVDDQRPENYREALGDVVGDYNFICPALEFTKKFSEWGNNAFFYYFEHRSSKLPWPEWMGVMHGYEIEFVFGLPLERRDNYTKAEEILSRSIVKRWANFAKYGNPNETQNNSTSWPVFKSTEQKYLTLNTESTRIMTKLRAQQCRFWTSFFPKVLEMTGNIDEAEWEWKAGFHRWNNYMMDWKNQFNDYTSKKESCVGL
Chain of Acetylcholinesterase (P22303 whole entry): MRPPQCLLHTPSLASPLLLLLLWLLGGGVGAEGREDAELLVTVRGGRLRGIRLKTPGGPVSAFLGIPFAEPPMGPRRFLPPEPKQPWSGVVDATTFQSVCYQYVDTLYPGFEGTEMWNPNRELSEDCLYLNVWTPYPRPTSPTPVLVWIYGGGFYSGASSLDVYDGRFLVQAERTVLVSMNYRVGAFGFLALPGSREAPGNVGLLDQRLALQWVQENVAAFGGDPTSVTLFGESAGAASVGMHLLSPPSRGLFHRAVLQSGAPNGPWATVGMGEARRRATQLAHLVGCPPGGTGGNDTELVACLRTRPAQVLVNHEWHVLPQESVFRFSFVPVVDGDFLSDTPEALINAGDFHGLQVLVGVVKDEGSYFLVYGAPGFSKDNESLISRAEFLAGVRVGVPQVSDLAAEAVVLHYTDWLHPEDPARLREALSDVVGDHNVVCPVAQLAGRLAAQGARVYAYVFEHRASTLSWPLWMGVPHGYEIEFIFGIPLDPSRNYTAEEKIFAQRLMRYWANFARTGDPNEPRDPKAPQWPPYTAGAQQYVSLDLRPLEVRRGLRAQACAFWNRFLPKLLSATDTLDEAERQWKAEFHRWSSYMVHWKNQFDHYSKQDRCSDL

SMILES	Time (Rattus norvegicus [1]) [s]	fold change (FC) (Rattus norvegicus [2])	IC50 (Cholinesterase) [µM]	Activity (Rattus norvegicus [3]) [%]	Time (Rattus norvegicus [4]) [s]	Activity (Rattus norvegicus [5]) [%]	fold change (FC) (Rattus norvegicus [6])	IC50 (Acetylcholinesterase) [µM]	fold change (FC) (Rattus norvegicus [7])	fold change (FC) (Rattus norvegicus [8])	Activity (Rattus norvegicus [9])	Activity (Rattus norvegicus [10])	Ratio IC50 [11]	fold change (FC) (Rattus norvegicus [12])
O=C1c2c(sc3c2CCCCC3)OC(c2ccccc2)N1c1ccc(Cl)cc1 (stereo not drawn)	35.5	2.3	24.7	54.5	25.67	71.5	1.7	9.48	5.2	1.7	<=47%	Active	2.6	
COc1ccc(N2C(=O)c3c(sc4c3CCCCC4)OC2c2ccc(Cl)cc2)cc1 (stereo not drawn)	41.67		7.76	70.8	16.33	85	2.9	3.14	5.9	3.8	30%	Active	2.47	5.1
CCOC(=O)c1c(OC(=O)c2ccc(Cl)cc2)sc2c1CCCCC2	27.67		2.9	49.2	34	70.67		1.05		1.7		Active	2.76	
O=C1c2c(sc3c2CCCCC3)OC(c2ccc(Cl)cc2)N1c1ccccc1 (stereo not drawn)	36.83	2.3	6.9	54.6	24.67	73.83	1.7	0.55	5.4	1.7	<=46%	Active	12.6	
CCOC(=O)c1c(OC(=O)c2ccccc2)sc2c1CCCCC2	24.17		7.5	43.8	37	63.5		2.16		1.7		Active	3.47	
O=C1c2c(sc3c2CCCCC3)OC(c2ccccc2)N1c1ccccc1 (stereo not drawn)	35.83	3.5	2.48	61.2	17	80	2.2	0.51	5.3	3.8	32%	Active	4.86	4.5
COc1cc2c(cc1OC)C(=O)C(CC1CCN(Cc3ccccc3)CC1)C2 (stereo not drawn) [DONEPEZIL]	42.67			63	14.78	85					28%	Active		
O=C1c2c(sc3c2CCCCC3)OC(c2ccc(Cl)cc2)N1c1ccc(Cl)cc1 (stereo not drawn)	46.5		308	73.9	11.83	83.33	~3.2	12.6	6.5	4.2	22%	Active	24.4	5.8
COc1ccc(N2C(=O)c3c(sc4c3CCCCC4)OC2c2ccccc2)cc1 (stereo not drawn)	38.17	2.3	11	62.6	23	74.33	1.7	4.05	5.6	3.5	<=43%	Active	2.73	
